Consider 4 compounds from publication PMC6688628, “N-Substituted Pyrrole Derivative 12m Inhibits HIV-1 Entry by Targeting Gp41 of HIV-1 Envelope Glycoprotein” (Frontiers in Pharmacology, 2019).

Read-outs that look alike come from different tables or passages of the source.

One assay concerns HIV-1 92UG029. Put plainly: Anti-HIV-1 activity, primary strain 92UG029. Type of assay: cell-based. Particulars: luciferase readout, mean ± SD.
A further assay relates to HIV-1 93/BR/020. Put plainly: microbe, parasite or virus in culture. Type of assay: cell-based. How it is done: (§1) The HIV-1 replication-inhibiting activity of compounds was determined as previously described ([Li et al., 2013]). Briefly, 1 × 10^4 TZM-bl or MT-2 cells were infected with primary HIV-1 strains or T20-resistant HIV-1 strains (100 TCID50) in 200 µl of RPMI-1640 medium containing 10% FBS in the presence or absence of compounds at graded concentrations for 12 h. The culture medium was replaced with fresh medium without the compounds. After culture for an additional 48 h, supernatants or cells were collected from each well. For the primary HIV-1 strains, the cells were treated using a luciferase kit. Briefly, the cells were lysed with the lysis reagent and were transferred into a 96-well flat-bottom luminometer plate after three washes with phosphate-buffered saline (PBS) (Costar Corning Inc., Corning, NY), followed by addition of the luciferase substrate included in the luciferase kit (Promega Corp., Madison, WI). The luciferase activity was measured immediately by an Ultra 384 microplate reader (Tecan, Research Triangle Park, NC). T20 was used as a positive control. For the T20-resistant HIV-1 strains, 100 µl of culture supernatant was mixed with 100 µl of 5% Triton X-100. Then, those virus lysates were assayed for p24 antigen by enzyme linked immunosorbent assay (ELISA) as previously described ([Li et al., 2010]). Absorbance at 450 nm was recorded in an ELISA reader (Ultra 384, Tecan). EC50 values were calculated using the computer program CalcuSyn ([Chou and Talalay, 1984]).

A further assay deals with HIV-1 BCF02. Put plainly: microbe, parasite or virus in culture. Type of assay: cell-based. As for the experimental part:
as §1

The test system of a further assay is HIV-1 US4 (GS 007). As to the kind of experiment: microbe, parasite or virus in culture. The format is cell-based. How it is done:
as §1

In the next assay the test system is HIV-1 NL4-3D36G. Type of assay: cell-based. Particulars: T20-sensitive parent strain, p24 ELISA, mean ± SD. For orientation: ELISA stands for enzyme-linked immunosorbent assay.
Assay [1] deals with HIV-1JR-FL Env mutant K574A pseudovirus. Type of assay: cell-based. Particulars: compared with wild-type HIV-1JR-FL pseudovirus.
In assay [2] the test system is HIV-1 NL4-3(36G)V38A,N42D. The note with it: T20-resistant NL4-3(36G)V38A,N42D; p24 ELISA; mean ± SD.
The next assay deals with HIV-1 NL4-3(36G)V38A. Particulars: T20-resistant NL4-3(36G)V38A; p24 ELISA; mean ± SD.
In assay [3] the test system is HIV-1 NL4-3(36G)N42T,N43K. The note with it: T20-resistant NL4-3(36G)N42T,N43K; p24 ELISA; mean ± SD.
Assay [4] has as its system HIV-1 NL4-3(36G)V38E,N42S. The note with it: T20-resistant NL4-3(36G)V38E,N42S; p24 ELISA; mean ± SD.
The test system of assay [5] is HIV-1 NL4-3(36G)V38A,N42T. Particulars: T20-resistant NL4-3(36G)V38A,N42T; p24 ELISA; mean ± SD.
The test system of assay [6] is R5 and X4 HIV-1 strains (Env pseudotyped viruses). Type of assay: cell-based.
The test system of a further assay is HIV-1. The arrangement: method as in Jiang et al., 2004. Particulars: inhibition of HIV-1 entry; ref Jiang et al., 2004; cited from earlier work.

Broadly, the IC50 is the concentration that gives 50% inhibition. Usually IC90 stands for the point of the concentration-response curve where the effect stands at 90%. Take `COc1ccc(S(=O)(=O)[O-])cc1N=Nc1c(S(=O)(=O)[O-])cc2cc(Nc3nc(Nc4ccccc4)nc(Nc4cc(C)c(N=Nc5cc(S(=O)(=O)[O-])cc6cc(S(=O)(=O)[O-])cc(O)c56)cc4OC)n3)ccc2c1O.[Na+].[Na+].[Na+].[Na+]` [ADS-J1]: the IC50 in the assay on HIV-1 92UG029 is 20600 ± 5290 nM; in the assay with HIV-1 93/BR/020 (primary strain 93/BR/020, luciferase readout, mean ± SD), 13000 ± 3490 nM; with HIV-1 BCF02 (primary strain BCF02, luciferase readout, mean ± SD, read-out: IC50) it was 1450 ± 260 nM; with HIV-1 US4 (GS 007) (primary strain US4 (GS 007), luciferase readout, mean ± SD, read-out: IC50), 4620 ± 760 nM; in the assay with HIV-1 NL4-3D36G, 940 ± 30 nM; in [2], 650 ± 180 nM. Besides, the IC50 with HIV-1 NL4-3(36G)V38A was 160 ± 40 nM; in [3], 610 ± 250 nM; in [4] it was 110 ± 10 nM; in assay [5], 620 ± 160 nM. The 90% effect concentration (IC90) with HIV-1 92UG029 worked out at 32200 ± 6710 nM; in the assay on HIV-1 93/BR/020 (primary strain 93/BR/020, luciferase readout, mean ± SD, read-out: IC90), 27000 ± 4300 nM; in the assay with HIV-1 BCF02 (primary strain BCF02, luciferase readout, mean ± SD, read-out: IC90), 3060 ± 420 nM; in the assay with HIV-1 US4 (GS 007) (primary strain US4 (GS 007), luciferase readout, mean ± SD, read-out: IC90) it was 9900 ± 1440 nM; in the assay on HIV-1 NL4-3D36G, 2030 ± 200 nM; in assay [2], 8200 ± 2650 nM. Also, the IC90 is 400 ± 50 nM in the assay on HIV-1 NL4-3(36G)V38A, 4240 ± 1210 nM in assay [3], 330 ± 10 nM in [4] and 8390 ± 1550 nM in assay [5]. In addition, the “inhibitory activity against K574A mutant pseudovirus” value in assay [1] was “exerted inhibitory activity”.

Turning to `c1cc(CN2CCCNCCNCCCNCC2)ccc1CN1CCCNCCNCCCNCC1` [AMD3100], the “inhibitory activity against the R5 and X4 HIV-1 strains” value in assay [6] is listed as “strong inhibitory activity”.

Take `O=C(O)c1cc(-n2cccc2)ccc1Cl` [NB-64]: the “effective concentration for 50% inhibition (EC50)” value with HIV-1 is reported as “on the µM level”.

For the compound Enfuvirtide, the IC90 in the assay on HIV-1 93/BR/020 (93/BR/020, 12 h) was 313 ± 22 nM; in the assay with HIV-1 BCF02 (BCF02, 12 h) it was 502 ± 338 nM; in the assay on HIV-1 US4 (GS 007) (US4 (GS 007, 12 h)), 1430 ± 443 nM; in assay [2], greater than 2000 nM; with HIV-1 NL4-3(36G)V38A it was greater than 2000 nM; in assay [3], greater than 2000 nM. For the same compound, the 90% effect concentration (IC90) in assay [4] and in assay [5] was greater than 2000 nM in each case. Moreover, the IC50 is 50 ± 22 nM with HIV-1 BCF02 (BCF02, 12 h); 59 ± 10 nM with HIV-1 US4 (GS 007) (US4 (GS 007, 12 h)); 895 ± 310 nM in assay [2]; 279 ± 82 nM with HIV-1 NL4-3(36G)V38A; greater than 2000 nM in [3]; greater than 2000 nM in assay [4]. In assay [5], this compound returned a 50% inhibitory concentration (IC50) greater than 2000 nM. The “inhibitory activity against the R5 and X4 HIV-1 strains” value in [6] (positive controls, single-cycle pseudovirus infection) is listed as “strong inhibitory activity”.
